# Data from patent publication US20200223826A1, “Glucose-6-Phosphate Dehydrogenase (G6PD)-Modulating Agents And Methods Of Treating G6PD Deficiency” (The Board of Trustees of the Leland Stanford Junior …, priority 2017, published 2020).
# Tests used:
# [1] = molecular target: T1, Canton G6PD (Homo sapiens, UniProt P11413, R459L); test: Canton G6PD enzyme activity, diaphorase-coupled assay; assay type: biochemical
# T1 construct: His (pET-28a) (N, cleaved yes); made in house; host or cells: E. coli C43 (DE3)
# T1 sequence (P11413 whole entry R459L): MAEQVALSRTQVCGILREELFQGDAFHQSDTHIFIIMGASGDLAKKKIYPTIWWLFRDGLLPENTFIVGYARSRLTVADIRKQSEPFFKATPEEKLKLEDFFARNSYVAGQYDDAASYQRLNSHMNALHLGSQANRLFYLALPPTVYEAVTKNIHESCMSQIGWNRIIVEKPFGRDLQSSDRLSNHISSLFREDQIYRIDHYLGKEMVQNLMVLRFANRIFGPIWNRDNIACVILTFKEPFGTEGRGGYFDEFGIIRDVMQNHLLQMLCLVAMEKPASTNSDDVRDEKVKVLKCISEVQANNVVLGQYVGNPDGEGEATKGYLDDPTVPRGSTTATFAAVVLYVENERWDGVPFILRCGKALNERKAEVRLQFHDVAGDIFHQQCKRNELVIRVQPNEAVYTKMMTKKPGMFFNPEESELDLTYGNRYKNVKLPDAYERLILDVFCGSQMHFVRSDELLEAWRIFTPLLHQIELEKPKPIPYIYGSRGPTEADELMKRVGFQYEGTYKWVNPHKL
# Procedure: (§1) Enzyme activity was measured by monitoring NADPH production, which was coupled with diaphorase converting resazurin to fluorescent resorufin (excitation at 565 nm and emission at 590 nm); fluorescent signal was thus proportional to G6PD activity. Assays were performed at 25° C. and run for 5 minutes in buffer containing 50 mM Tris (pH 7.4), 0.5 mM EDTA, 3.3 mM MgCl2, 1 U/ml diaphorase, 0.1 mM resazurin. 10 ng of recombinant enzymes or 10 μg of cell lysates was used for the assay with 10 μM NADP^+ (Sigma) as cofactor and 100 μM G6P (Sigma) as substrate. Steady-state kinetic parameters were obtained by varying concentrations of NADP^+ (0-10 μM) with a constant concentration of G6P (100 μM) and similarly for G6P (0-100 μM) with a constant concentration of NADP^+ (10 μM) with 10 ng of recombinant enzymes. Data analysis was performed using GraphPad Prism software v.6 (GraphPad Software, La Jolla, Calif. USA). Kinetic parameters were obtained by fitting the data to the Michaelis-Menten equation.
# The diaphorase-coupled enzyme assay as described above was used to screen a library of compounds for small molecule activators. The compounds were added to Canton G6PD enzyme reaction mixture at a final concentration of 16.67 μM using Caliper Life Sciences Staccato system with a Twister II robot and a Sciclone ALH3000 (Caliper Life Sciences, Alameda, Calif. USA) integrated with a V&P Scientific pin tool, which was followed by incubation for 3 hours. Addition of G6P then initiated the reaction, which was run for 2.5 minutes. The fluorescent signals were recorded 4 times during the run using Molecular Devices AnalystGT (Molecular Devices, Sunnyvale, Calif. USA). Any compounds showing 30% activation of the enzyme were rescreened in a dose-dependent manner (0-30 μM, duplicate) to identify potential hits.
# Based on preliminary results with compound AG1, a variety of compounds of interest were prepared and assessed in G6PD enzyme activation assays, according to the methods described herein.
# [2] = molecular target: T2, WT G6PD (Homo sapiens, UniProt P11413); test: WT G6PD enzyme activity, recombinant enzyme; assay type: biochemical
# T2 construct: His (pET-28a) (N, cleaved yes); made in house; host or cells: E. coli C43 (DE3)
# T2 sequence (P11413 whole entry): as the sequence (P11413 whole entry R459L) above, with L459R counted along it
# Procedure: as §1
# [3] = molecular target: T1, Canton G6PD; test: In vitro proteolysis assay with chymotrypsin; conditions: in the presence of AG1, 25% in its absence
# Procedure: 200 ng of recombinant enzymes were incubated with 1 μL of 10 ng/μL chymotrypsin for 1 hour at room temperature. 100 μM of the compound was added to some reaction conditions. The following protein level was examined by Western blot.
# [4] = test system: lymphocytes carrying the Canton variant; test: Cellular ROS measurement in lymphocytes; assay type: cell-based, human; conditions: treatment with AG1 for 24 hours
# Procedure: Cells in a 96-well plate were incubated with chloromethyl-2′,7′-dichlorodihydrofluorescein diacetate (CM-H2DCFDA) at a final concentration of 5 μM in HBSS (Hank's balanced salt solution) for 30 minutes at 37° C. After wash, cells were treated with Hoechst 33342 (1:10,000 dilution, Molecular Probes) to stain nuclei and incubated for another 10 minutes at 37° C. Cells were washed in HBSS, and the florescence was analyzed with excitation/emission at 485/525 nm. Cells were subjected to serum starvation (50-75%) for 48 hours to induce oxidative stress and treated with the compound for 24 hours before measurement. The signal was normalized to nuclei staining (excitation/emission at 350/470 nm).
# [5] = test system: fibroblasts with the Mediterranean variant; test: Viability of fibroblasts, with and without siRNA knockdown; assay type: cell-based, human
# Procedure: Cell viability was measured using a Cell-Counting Kit-8 (CCK-8, Dojindo), utilizing WST-8 [2-(2-methoxy-4-nitrophenyl)-3-(4-nitrophenyl)-5-(2,4-disulfophenyl)-2H-tetrazolium monosodium salt, according to the manufacturer's instructions. Cells were subjected to serum starvation for 48 hours before measurement. Cells in 100 μL of medium per well were treated with 10 μL of CCK-8 solution and incubated for 2 hours at 37° C. The absorbance was read at 450 nm. Viability of lymphocytes was measured by staining with a 0.4% solution of trypan blue in buffered isotonic salt solution (pH 7.2). The viability was calculated as the number of viable cells (non-stained by the dye) divided by the total number of cells within the grids on the hemacytometer. Cells were treated with 1 μM of the compound 24 hours before the measurement.
# Endogenous G6PD was knocked down in each cell line as follows; 2 pmol of siRNA G6PD (Santa Cruz Biotechnology) and 0.5 μg lipofectamine (Invitrogen) were diluted in 10 μL of Opti-MEM medium respectively and incubated for 5 minutes. The diluted siRNA was combined with diluted lipofectamine, which was followed by additional incubation for 20 minutes prior to the addition to cells in a 96-well plate.
# [6] = test system: zebrafish embryos; test: NADPH levels in lysates of pooled zebrafish embryos; assay type: in vivo; conditions: lysates of pooled AG1-treated embryos
# Procedure: Embryos were dechorinated with pronase at 24 hours post fertilization (hpf) and treated with 50 μg/ml of chloroquine and/or AG1 by directly adding the compounds to the well. For ROS measurements, embryos were incubated with compounds for 2 hours, and then the ROS detecting reagent (CM-H2DCFDA) was added at a final concentration of 500 ng/ml to the well for a total treatment time of 5 hours. One embryo was placed to each well of a black, opaque 96-well plate. The florescence was analyzed with excitation/emission at 485/525 nm. After ROS assays, embryos at about 32 hpf were pooled and lysed in buffer containing 50 mM Tris (pH 7.4), 150 mM NaCl, 1 mM EDTA, 0.1% NP-40, and protease inhibitor cocktail, which was followed by three cycles of freeze and thawing in liquid nitrogen. The lysate was centrifuged at 14,000 rpm at 4° C. for 15 minutes. Total protein concentration in the supernatants (total lysate) was determined by Bradford method. 50 μg of total lysate was loaded onto 10% SDS-PAGE gels and the protein level was examined by Western blot using anti-G6PD antibody (Abcam (G6PD: AB87230)). 10 μg of total lysate was used for enzymatic assay. 50 μg of the lysate was used to measure NADPH levels using a NADPH quantification kit (Biovision), according to the manufacturer's instructions.
structure (smiles),measurement,setting,value
"SCCNCCc1c[nH]c2ccccc12 [AG1, 2-[2-(1H-indol-3-yl)ethylamino]ethanethiol]",increase of the activity of Canton G6PD enzyme,[1]; 100 μM of AG1,70%
same,kcat (turnover number),[1]; Canton G6PD in presence of AG1,296 ± 1 S^−1
same,EC50,[1]; read-out: EC50 of activation of Canton G6PD,~3 µM
same,increase of WT G6PD activity over basal activity,[2],about 20%
same,protein remaining after proteolysis,[3],50%
same,ROS level,[4],decreased
same,rescue of viability,[5]; Mediterranean G6PD expression knocked down by siRNA,did not rescue
same,improvement of viability,[5]; stress conditions,22%
same,NADPH levels,[6],significant increase
